Assay results: publication PMC5218480 (PLoS ONE, 2017)

Tested on: MV-4-11 cells
Assay: Gene expression microarray analysis (Affymetrix PrimeView) and GSEA
Type: cell-based, human
Design: RFU PODN (11730768_x_at) / Fold change /veh PODN (11730768_x_at) / RFU LINC00158 (11744669_a_at) / Fold change /veh LINC00158 (11744669_a_at) / RFU DUSP10 (11751237_a_at) / Fold change /veh DUSP10 (11751237_a_at) / RFU ID3 (11757404_x_at) / Fold change /veh ID3 (11757404_x_at) / RFU PLEKHG5 (11737974_s_at) / Fold change /veh PLEKHG5 (11737974_s_at) / RFU LRRC4B (11730491_at) / Fold change /veh LRRC4B (11730491_at) / RFU GIMAP4 (11747438_a_at) / Fold change /veh GIMAP4 (11747438_a_at) / RFU KRT8 (11758183_x_at) / Fold change /veh KRT8 (11758183_x_at) / RFU CNN1 (11734310_a_at) / Fold change /veh CNN1 (11734310_a_at) / RFU VPS37D (11726825_at) / Fold change /veh VPS37D (11726825_at) / RFU C10orf10 (11716522_x_at) / Fold change /veh C10orf10 (11716522_x_at) / RFU KIR2DL2 /// KIR2DL4 /// KIR2DL5A /// KIR2DL5B /// KIR2DS1 /// KIR2DS2 /// KIR2DS3 /// KIR2DS4 /// KIR3DL3 /// KIR3DL3 /// KIR3DS1 (11738374_at) / Fold change /veh KIR2DL2 /// KIR2DL4 /// KIR2DL5A /// KIR2DL5B /// KIR2DS1 /// KIR2DS2 /// KIR2DS3 /// KIR2DS4 /// KIR3DL3 /// KIR3DL3 /// KIR3DS1 (11738374_at) / RFU C1QL1 (11718748_at) / Fold change /veh C1QL1 (11718748_at) / RFU TMPRSS4 (11747572_a_at) / Fold change /veh TMPRSS4 (11747572_a_at) / RFU HAMP (11756126_x_at) / Fold change /veh HAMP (11756126_x_at) / RFU RNFT2 (11725882_a_at) / Fold change /veh RNFT2 (11725882_a_at) / RFU NR4A2 (11747474_a_at) / Fold change /veh NR4A2 (11747474_a_at) / RFU ABCC12 (11746883_a_at) / Fold change /veh ABCC12 (11746883_a_at) / RFU TMEM136 (11760407_x_at) / Fold change /veh TMEM136 (11760407_x_at) / RFU CLDN22 /// WWC2 (11732394_at) / Fold change /veh CLDN22 /// WWC2 (11732394_at) / RFU HLA-DPB1 (11760878_x_at) / Fold change /veh HLA-DPB1 (11760878_x_at) / RFU SPINT1 (11716480_a_at) / Fold change /veh SPINT1 (11716480_a_at) / RFU GAP43 (11754022_s_at) / Fold change /veh GAP43 (11754022_s_at) / RFU A4GNT (11735810_at) / Fold change /veh A4GNT (11735810_at) / RFU PRB3 (11715151_x_at) / Fold change /veh PRB3 (11715151_x_at) / RFU TUBB4B (11761932_at) / Fold change /veh TUBB4B (11761932_at) / RFU CAPN14 (11732068_a_at) / Fold change /veh CAPN14 (11732068_a_at) / RFU TMCC2 (11721928_a_at) / Fold change /veh TMCC2 (11721928_a_at) / RFU IRGQ (11745062_a_at) / Fold change /veh IRGQ (11745062_a_at) / RFU FAM174B (11720279_a_at) / Fold change /veh FAM174B (11720279_a_at) / RFU TMPRSS4 (11748680_a_at) / Fold change /veh TMPRSS4 (11748680_a_at) / RFU FAM212B (11763350_a_at) / Fold change /veh FAM212B (11763350_a_at) / RFU PLEKHG5 (11743358_a_at) / Fold change /veh PLEKHG5 (11743358_a_at) / RFU ZSCAN30 (11745921_a_at) / Fold change /veh ZSCAN30 (11745921_a_at) / RFU CMKLR1 (11741424_a_at) / Fold change /veh CMKLR1 (11741424_a_at) / RFU LOC101060620 /// MAPK8IP1 (11723275_at) / Fold change /veh LOC101060620 /// MAPK8IP1 (11723275_at) / RFU SPTSSB (11747773_x_at) / Fold change /veh SPTSSB (11747773_x_at) / RFU PRSS12 (11739890_at) / Fold change /veh PRSS12 (11739890_at) / RFU BIN1 (11741810_x_at) / Fold change /veh BIN1 (11741810_x_at) / RFU WNT11 (11732464_a_at) / Fold change /veh WNT11 (11732464_a_at) / RFU C10orf10 (11716521_a_at) / Fold change /veh C10orf10 (11716521_a_at) / RFU C5orf56 (11738089_at) / Fold change /veh C5orf56 (11738089_at) / RFU CYB561 (11721691_x_at) / Fold change /veh CYB561 (11721691_x_at) / RFU ANKRD19P (11752326_a_at) / Fold change /veh ANKRD19P (11752326_a_at) / RFU OR2T12 /// OR2T33 /// OR2T8 (11738714_s_at) / Fold change /veh OR2T12 /// OR2T33 /// OR2T8 (11738714_s_at) / RFU VCAN (11748164_a_at) / Fold change /veh VCAN (11748164_a_at) / RFU JSRP1 (11732532_at) / Fold change /veh JSRP1 (11732532_at) / RFU KRTAP10-11 (11738290_x_at) / Fold change /veh KRTAP10-11 (11738290_x_at) / RFU MYO3A (11730013_a_at) / Fold change /veh MYO3A (11730013_a_at) / RFU EBF3 (11725865_a_at) / Fold change /veh EBF3 (11725865_a_at) / RFU CAMK2N1 (11719241_x_at) / Fold change /veh CAMK2N1 (11719241_x_at) / RFU C5orf56 (11738088_a_at) / Fold change /veh C5orf56 (11738088_a_at) / RFU OLFML3 (11715873_a_at) / Fold change /veh OLFML3 (11715873_a_at) / RFU LOC100653217 /// NTM (11731650_a_at) / Fold change /veh LOC100653217 /// NTM (11731650_a_at) / RFU MAPK11 (11762145_a_at) / Fold change /veh MAPK11 (11762145_a_at) / RFU FIZ1 (11724087_x_at) / Fold change /veh FIZ1 (11724087_x_at) / RFU OASL (11726364_x_at) / Fold change /veh OASL (11726364_x_at) / RFU SOX15 (11748057_x_at) / Fold change /veh SOX15 (11748057_x_at) / RFU CD79A (11719716_a_at) / Fold change /veh CD79A (11719716_a_at) / RFU HIST1H1D (11736915_at) / Fold change /veh HIST1H1D (11736915_at) / RFU CASKIN2 (11723855_a_at) / Fold change /veh CASKIN2 (11723855_a_at) / RFU LOC730098 (11760151_x_at) / Fold change /veh LOC730098 (11760151_x_at) / RFU OR4N2 (11742367_at) / Fold change /veh OR4N2 (11742367_at) / RFU PRRT2 (11749266_a_at) / Fold change /veh PRRT2 (11749266_a_at) / RFU SNX32 (11753110_a_at) / Fold change /veh SNX32 (11753110_a_at) / RFU CDHR5 (11726645_a_at) / Fold change /veh CDHR5 (11726645_a_at) / RFU RCAN1 (11760418_a_at) / Fold change /veh RCAN1 (11760418_a_at) / RFU FAM167A (11723789_a_at) / Fold change /veh FAM167A (11723789_a_at) / RFU FAM26E (11764081_at) / Fold change /veh FAM26E (11764081_at) / RFU ISYNA1 (11749810_s_at) / Fold change /veh ISYNA1 (11749810_s_at) / RFU ACY1 (11761880_at) / Fold change /veh ACY1 (11761880_at) / RFU 11764098_at / Fold change /veh 11764098_at / RFU SAMD14 (11745864_x_at) / Fold change /veh SAMD14 (11745864_x_at) / RFU NPB (11741838_a_at) / Fold change /veh NPB (11741838_a_at) / RFU TMPRSS6 (11731388_a_at) / Fold change /veh TMPRSS6 (11731388_a_at) / RFU KRTAP10-2 (11738614_at) / Fold change /veh KRTAP10-2 (11738614_at) / RFU ARHGAP8 /// PRR5-ARHGAP8 (11727945_x_at) / Fold change /veh ARHGAP8 /// PRR5-ARHGAP8 (11727945_x_at) / RFU KRTAP5-7 /// NADSYN1 (11734609_at) / Fold change /veh KRTAP5-7 /// NADSYN1 (11734609_at) / RFU RASL12 (11751679_a_at) / Fold change /veh RASL12 (11751679_a_at) / RFU CDKN2B (11736163_a_at) / Fold change /veh CDKN2B (11736163_a_at) / RFU PRF1 (11729649_at) / Fold change /veh PRF1 (11729649_at) / RFU, ZNF638 /// ZNF638-IT1 / Fold change vs veh, ZNF638 /// ZNF638-IT1 / RFU, PANK3 / Fold change vs veh, PANK3 / RFU, SH3YL1 / Fold change vs veh, SH3YL1 / RFU, ZEB2 / Fold change vs veh, ZEB2 / RFU, NRIP1 / Fold change vs veh, NRIP1 / RFU, PTTG1IP / Fold change vs veh, PTTG1IP / RFU, CAPN2 / Fold change vs veh, CAPN2 / RFU, MED14 / Fold change vs veh, MED14 / RFU, SNORA58 / Fold change vs veh, SNORA58 / RFU, C1orf63 / Fold change vs veh, C1orf63 / RFU, LRRFIP1 / Fold change vs veh, LRRFIP1 / RFU, NDUFAF7 / Fold change vs veh, NDUFAF7 / RFU, SLC12A2 / Fold change vs veh, SLC12A2 / RFU, IBTK / Fold change vs veh, IBTK / RFU, ESF1 / Fold change vs veh, ESF1 / Fold change vs veh, TMEM50B / RFU, TAOK1 / Fold change vs veh, TAOK1 / RFU, ACBD3 / Fold change vs veh, ACBD3 / RFU, TMA16 / Fold change vs veh, TMA16 / RFU, RWDD3 / Fold change vs veh, RWDD3 / RFU, BCAT1 / Fold change vs veh, BCAT1 / RFU, EDEM3 / Fold change vs veh, EDEM3 / RFU, TMEM33 / Fold change vs veh, TMEM33 / RFU, WDR75 / Fold change vs veh, WDR75 / RFU, AHCTF1 / Fold change vs veh, AHCTF1 / RFU, TFRC / Fold change vs veh, TFRC / RFU, ZDHHC17 / Fold change vs veh, ZDHHC17 / RFU, NOM1 / Fold change vs veh, NOM1 / RFU, ARL8B / Fold change vs veh, ARL8B / RFU, ZBTB11 / Fold change vs veh, ZBTB11 / RFU, TAMM41 / Fold change vs veh, TAMM41 / RFU, KIAA1704 /// LOC100996395 / Fold change vs veh, KIAA1704 /// LOC100996395 / RFU, ING1 / Fold change vs veh, ING1 / RFU, TRMT61B / Fold change vs veh, TRMT61B / RFU, FUBP3 / Fold change vs veh, FUBP3 / RFU, TP53 / Fold change vs veh, TP53 / RFU, TNKS2 / Fold change vs veh, TNKS2 / RFU, ZFP14 / Fold change vs veh, ZFP14 / RFU, ACTR2 / Fold change vs veh, ACTR2 / RFU, PPP3R1 / Fold change vs veh, PPP3R1 / RFU, PIK3R1 / Fold change vs veh, PIK3R1 / RFU, HNRNPA1 / Fold change vs veh, HNRNPA1 / RFU, RNF170 / Fold change vs veh, RNF170 / RFU, ZNF28 / Fold change vs veh, ZNF28 / RFU, RNGTT / Fold change vs veh, RNGTT / RFU, OGT / Fold change vs veh, OGT / RFU, BRD1 / Fold change vs veh, BRD1 / RFU, MARS / Fold change vs veh, MARS / RFU, ZNF655 / Fold change vs veh, ZNF655 / RFU, FAHD1 / Fold change vs veh, FAHD1 / RFU, BDP1 / Fold change vs veh, BDP1 / RFU, LRRCC1 / Fold change vs veh, LRRCC1 / RFU, ARID1A / Fold change vs veh, ARID1A / RFU, ZNF146 / Fold change vs veh, ZNF146 / RFU, ZNF330 / Fold change vs veh, ZNF330 / RFU, GPN3 / Fold change vs veh, GPN3 / RFU, C9orf123 / Fold change vs veh, C9orf123 / RFU, N4BP2L2 / Fold change vs veh, N4BP2L2 / RFU, ARFIP1 / Fold change vs veh, ARFIP1 / RFU, FAM179B / Fold change vs veh, FAM179B / RFU, BCL10 / Fold change vs veh, BCL10 / RFU, UHRF1BP1L / Fold change vs veh, UHRF1BP1L / RFU, BET1 / Fold change vs veh, BET1 / RFU, CNOT2 / Fold change vs veh, CNOT2 / RFU, ZNF268 / Fold change vs veh, ZNF268 / Fold change vs veh, ZNF507 / RFU, DGCR2 / Fold change vs veh, DGCR2 / RFU, WDSUB1 / Fold change vs veh, WDSUB1 / Fold change vs veh, HSP90B1 /// MIR3652 / RFU, ADSS / Fold change vs veh, ADSS / RFU, GK / Fold change vs veh, GK / RFU, ZNF148 / Fold change vs veh, ZNF148 / RFU, TAF9 / Fold change vs veh, TAF9 / RFU, SLC1A5 / Fold change vs veh, SLC1A5 / RFU, SLMO2 / Fold change vs veh, SLMO2 / RFU, ABCC4 / Fold change vs veh, ABCC4 / RFU, LOC101060439 /// RAP1B / Fold change vs veh, LOC101060439 /// RAP1B / RFU, RFX7 / Fold change vs veh, RFX7 / RFU, GTPBP10 / Fold change vs veh, GTPBP10 / RFU, CNEP1R1 / Fold change vs veh, CNEP1R1 / RFU, BIVM-ERCC5 /// ERCC5 / Fold change vs veh, BIVM-ERCC5 /// ERCC5 / RFU, ILF3 / Fold change vs veh, ILF3 / RFU 11762660_at / Fold change /veh 11762660_at / RFU VCAN (11757783_s_at) / Fold change /veh VCAN (11757783_s_at) / RFU DDX43 (11728927_at) / Fold change /veh DDX43 (11728927_at) / RFU KRT8 (11758188_x_at) / Fold change /veh KRT8 (11758188_x_at) / RFU NKD1 (11759106_at) / Fold change /veh NKD1 (11759106_at) / RFU SRD5A1 (11742802_a_at) / Fold change /veh SRD5A1 (11742802_a_at) / RFU TPSAB1 /// TPSB2 (11721975_s_at) / Fold change /veh TPSAB1 /// TPSB2 (11721975_s_at) / RFU GSTM3 (11746129_a_at) / Fold change /veh GSTM3 (11746129_a_at) / RFU IL23R (11737362_x_at) / Fold change /veh IL23R (11737362_x_at) / RFU TMEM51 (11727254_a_at) / Fold change /veh TMEM51 (11727254_a_at) / RFU PIWIL2 (11732686_x_at) / Fold change /veh PIWIL2 (11732686_x_at) / RFU ORM1 (11744905_x_at) / Fold change /veh ORM1 (11744905_x_at) / RFU CCDC152 (11743942_at) / Fold change /veh CCDC152 (11743942_at) / RFU ECM1 (11717891_a_at) / Fold change /veh ECM1 (11717891_a_at) / RFU IL23R (11748794_a_at) / Fold change /veh IL23R (11748794_a_at) / RFU TNFAIP8L3 (11732012_x_at) / Fold change /veh TNFAIP8L3 (11732012_x_at) / RFU MBOAT4 (11741988_at) / Fold change /veh MBOAT4 (11741988_at) / RFU 11764193_at / Fold change /veh 11764193_at / RFU TMEM53 (11763286_at) / Fold change /veh TMEM53 (11763286_at) / RFU MAGEB2 (11727129_at) / Fold change /veh MAGEB2 (11727129_at) / RFU TMEM200A (11744735_a_at) / Fold change /veh TMEM200A (11744735_a_at) / RFU CCDC152 (11751479_a_at) / Fold change /veh CCDC152 (11751479_a_at) / RFU FAM211A (11726209_a_at) / Fold change /veh FAM211A (11726209_a_at) / RFU RGS16 (11746705_a_at) / Fold change /veh RGS16 (11746705_a_at) / RFU VCAN (11755009_s_at) / Fold change /veh VCAN (11755009_s_at) / RFU RHOB (11743442_s_at) / Fold change /veh RHOB (11743442_s_at) / RFU RGS16 (11720943_a_at) / Fold change /veh RGS16 (11720943_a_at) / RFU RGS16 (11720944_at) / Fold change /veh RGS16 (11720944_at) / RFU, VPS4B / Fold change vs veh, VPS4B / RFU, CREB1 / Fold change vs veh, CREB1 / RFU, DNAJC13 / Fold change vs veh, DNAJC13 / RFU, GNAQ / Fold change vs veh, GNAQ / RFU, CDK5R1 / Fold change vs veh, CDK5R1 / RFU, ZRANB3 / Fold change vs veh, ZRANB3 / RFU, CUL4A / Fold change vs veh, CUL4A / RFU, CCNY / Fold change vs veh, CCNY / RFU, UFL1 / Fold change vs veh, UFL1 / RFU, COG3 / Fold change vs veh, COG3 / RFU, DIAPH2 / Fold change vs veh, DIAPH2 / RFU, SKA2 / Fold change vs veh, SKA2 / RFU, AFF3 / Fold change vs veh, AFF3 / RFU, LMF1 / Fold change vs veh, LMF1 / RFU, IPO11 / Fold change vs veh, IPO11 / RFU, DFFB / Fold change vs veh, DFFB / RFU, FOXP1 / Fold change vs veh, FOXP1 / RFU, CARD8 / Fold change vs veh, CARD8 / RFU, STRN3 / Fold change vs veh, STRN3 / RFU, ADK / Fold change vs veh, ADK / RFU, RASSF2 / Fold change vs veh, RASSF2 / RFU, WIPF1 / Fold change vs veh, WIPF1 / RFU, LARP1B / Fold change vs veh, LARP1B / RFU, RASA1 / Fold change vs veh, RASA1 / RFU, RB1 / Fold change vs veh, RB1 / RFU, PPFIA1 / Fold change vs veh, PPFIA1 / RFU, MAT2A / Fold change vs veh, MAT2A / RFU, CCT5 / Fold change vs veh, CCT5 / RFU, WDR92 / Fold change vs veh, WDR92 / RFU, CUX1 / Fold change vs veh, CUX1 / RFU, TTC7A / Fold change vs veh, TTC7A / RFU, TMEM135 / Fold change vs veh, TMEM135 / RFU, DEPTOR / Fold change vs veh, DEPTOR / RFU, CPM / Fold change vs veh, CPM / RFU, DNAJB6 / Fold change vs veh, DNAJB6 / RFU, CACNA2D3 / Fold change vs veh, CACNA2D3 / RFU, DTX4 / Fold change vs veh, DTX4 / RFU, TFCP2 / Fold change vs veh, TFCP2 / RFU, GMCL1 /// GMCL1P1 / Fold change vs veh, GMCL1 /// GMCL1P1 / RFU, AEBP2 / Fold change vs veh, AEBP2 / RFU, SNHG1 /// SNORD22 /// SNORD25 /// SNORD26 /// SNORD27 /// SNORD28 /// SNORD29 /// SNORD31 / Fold change vs veh, SNHG1 /// SNORD22 /// SNORD25 /// SNORD26 /// SNORD27 /// SNORD28 /// SNORD29 /// SNORD31 / Fold change (Aza/veh), C12orf56 (ProbeSet 11735607_a_at) / Fold change (ACY-1035/veh), C12orf56 (ProbeSet 11735607_a_at) / Fold change (Aza/veh), FGFR1OP (ProbeSet 11751329_s_at) / Fold change (ACY-1035/veh), FGFR1OP (ProbeSet 11751329_s_at) / Fold change (Aza/veh), VPS36 (ProbeSet 11739960_a_at) / Fold change (ACY-1035/veh), VPS36 (ProbeSet 11739960_a_at) / RFU SYPL1 (11715823_x_at) / Fold change /veh SYPL1 (11715823_x_at) / RFU IGFBP7 (11715501_s_at) / Fold change /veh IGFBP7 (11715501_s_at) / RFU REEP3 (11722064_at) / Fold change /veh REEP3 (11722064_at) / RFU IGLL1 (11728026_x_at) / Fold change /veh IGLL1 (11728026_x_at): dose or concentration left out as unconfirmed
Settings: MV-4-11 cells, 48 hours

## Nc1ccc(-c2cccs2)cc1NC(=O)c1ccc2c(c1)cc(C1CC1)n2CCN1CCOCC1 [ACY-1035]
  Fold change /veh CCDC152 (11751479_a_at): 1.05
